Source: patent publication US20240218342A1, “SITE-SPECIFIC GLYCAN REMODELING OF LYSOSOMAL ENZYMES AND APPLICATIONS THEREOF” (priority 2021, published 2024)
Entries after “also recorded” stand apart in the source; their conditions may differ.

How the values were obtained:
CI-MPR = CI-MPR (Homo sapiens, UniProt P11717); conditions: previous studies; read-out: apparent KD; cited from earlier work
[1] = tested on: GAA-deficient multinucleated myotubes (KO); assay: Cell-associated GAA activity in treated GAA KO myotubes; type: cell-based, mouse; conditions: 5 μM for 24 hours, compared to untreated cells
Description: (§1) Muscle cell culture, treatment, processing, and analysis. The biological effect of the Endo-A (69) and Endo-F3 (70) remodeled rhGAA was investigated in an in vitro model of Pompe disease.^[11, 12] The myoblasts are grown on Matrigel (Corning; 354234)-coated 6-well plates at 33° C. in an atmosphere of 5% CO2 in proliferation medium [20% fetal bovine serum, 10% horse serum, 1% chick embryo extract, recombinant IFN-γ (100 U/mL; Life Technologies), 1× penicillin/streptomycin/L-glutamine in high-glucose (4.5 g/L) DMEM]. When the cells reach 70-80% confluency (3-4 days), the medium is switched to differentiation medium [DMEM containing 2% horse serum, 0.5% chick embryo extract, recombinant human insulin (10 μg/mL, Life Technologies, 12585-014), 1× penicillin/streptomycin/L-glutamine], and the cells are moved to 37° C. in an atmosphere of 5% CO2. Myotubes begin to form within 3-4 days; they can survive for ˜ 8-10 days in culture until they start twitching and detach from the surface. […]
Measurement of cell-associated GAA activity. The GAA activity in the cells was measured by using 4-methylumbelliferyl-α-D-glucopyranoside (4-MU-α-glucopyranoside; Sigma-Aldrich #M9766) as the fluorogenic GAA substrate as described.^[13] […] Fluorescence was measured on a multi-label plate reader (TECAN, SPARK 10M) at 360 nm excitation/465 nm emission.

[2] = tested on: GAA-deficient multinucleated myotubes (KO); assay: Western blotting of treated GAA KO myotube lysates; type: cell-based, mouse; conditions: 5 μM for 24 hours
Description: as §1
Western blotting. […] Protein concentrations of the supernatants were measured using the Bio-Rad Protein Assay (Bio-Rad Laboratories, Inc.), and equal amounts of protein were run on SDS-PAGE gels (Invitrogen, Carlsbad, CA). […]

[3] = tested on: GAA-deficient multinucleated myotubes (KO); assay: LAMP1 immunofluorescence (lysosomal swelling) in GAA KO myotubes; type: cell-based, mouse; conditions: 5 μM for 24 hours, confocal images
Description: Muscle cell culture, treatment, processing, and analysis. The biological effect of the Endo-A (69) and Endo-F3 (70) remodeled rhGAA was investigated in an in vitro model of Pompe disease.^[11, 12] The myoblasts are grown on Matrigel (Corning; 354234)-coated 6-well plates at 33° C. in an atmosphere of 5% CO2 in proliferation medium [20% fetal bovine serum, 10% horse serum, 1% chick embryo extract, recombinant IFN-γ (100 U/mL; Life Technologies), 1× penicillin/streptomycin/L-glutamine in high-glucose (4.5 g/L) DMEM]. When the cells reach 70-80% confluency (3-4 days), the medium is switched to differentiation medium [DMEM containing 2% horse serum, 0.5% chick embryo extract, recombinant human insulin (10 μg/mL, Life Technologies, 12585-014), 1× penicillin/streptomycin/L-glutamine], and the cells are moved to 37° C. in an atmosphere of 5% CO2. Myotubes begin to form within 3-4 days; they can survive for ˜ 8-10 days in culture until they start twitching and detach from the surface.
The commercial rhGAA, Endo-A- or Endo-F3 remodeled rhGAA were added to the myotubes (on day 8 in differentiation medium) at a concentration of 5 μM for 24 hours; n=5 independent experiments for each condition. Wild type (WT) immortalized myotubes and untreated KO myotubes were used for comparison. The cells were homogenized on ice in deionized H2O, sonicated, and centrifuged at 18,000×g at 4° ° C. for 15 min. […]

Sequence of CI-MPR (P11717 41-2491, species assumed): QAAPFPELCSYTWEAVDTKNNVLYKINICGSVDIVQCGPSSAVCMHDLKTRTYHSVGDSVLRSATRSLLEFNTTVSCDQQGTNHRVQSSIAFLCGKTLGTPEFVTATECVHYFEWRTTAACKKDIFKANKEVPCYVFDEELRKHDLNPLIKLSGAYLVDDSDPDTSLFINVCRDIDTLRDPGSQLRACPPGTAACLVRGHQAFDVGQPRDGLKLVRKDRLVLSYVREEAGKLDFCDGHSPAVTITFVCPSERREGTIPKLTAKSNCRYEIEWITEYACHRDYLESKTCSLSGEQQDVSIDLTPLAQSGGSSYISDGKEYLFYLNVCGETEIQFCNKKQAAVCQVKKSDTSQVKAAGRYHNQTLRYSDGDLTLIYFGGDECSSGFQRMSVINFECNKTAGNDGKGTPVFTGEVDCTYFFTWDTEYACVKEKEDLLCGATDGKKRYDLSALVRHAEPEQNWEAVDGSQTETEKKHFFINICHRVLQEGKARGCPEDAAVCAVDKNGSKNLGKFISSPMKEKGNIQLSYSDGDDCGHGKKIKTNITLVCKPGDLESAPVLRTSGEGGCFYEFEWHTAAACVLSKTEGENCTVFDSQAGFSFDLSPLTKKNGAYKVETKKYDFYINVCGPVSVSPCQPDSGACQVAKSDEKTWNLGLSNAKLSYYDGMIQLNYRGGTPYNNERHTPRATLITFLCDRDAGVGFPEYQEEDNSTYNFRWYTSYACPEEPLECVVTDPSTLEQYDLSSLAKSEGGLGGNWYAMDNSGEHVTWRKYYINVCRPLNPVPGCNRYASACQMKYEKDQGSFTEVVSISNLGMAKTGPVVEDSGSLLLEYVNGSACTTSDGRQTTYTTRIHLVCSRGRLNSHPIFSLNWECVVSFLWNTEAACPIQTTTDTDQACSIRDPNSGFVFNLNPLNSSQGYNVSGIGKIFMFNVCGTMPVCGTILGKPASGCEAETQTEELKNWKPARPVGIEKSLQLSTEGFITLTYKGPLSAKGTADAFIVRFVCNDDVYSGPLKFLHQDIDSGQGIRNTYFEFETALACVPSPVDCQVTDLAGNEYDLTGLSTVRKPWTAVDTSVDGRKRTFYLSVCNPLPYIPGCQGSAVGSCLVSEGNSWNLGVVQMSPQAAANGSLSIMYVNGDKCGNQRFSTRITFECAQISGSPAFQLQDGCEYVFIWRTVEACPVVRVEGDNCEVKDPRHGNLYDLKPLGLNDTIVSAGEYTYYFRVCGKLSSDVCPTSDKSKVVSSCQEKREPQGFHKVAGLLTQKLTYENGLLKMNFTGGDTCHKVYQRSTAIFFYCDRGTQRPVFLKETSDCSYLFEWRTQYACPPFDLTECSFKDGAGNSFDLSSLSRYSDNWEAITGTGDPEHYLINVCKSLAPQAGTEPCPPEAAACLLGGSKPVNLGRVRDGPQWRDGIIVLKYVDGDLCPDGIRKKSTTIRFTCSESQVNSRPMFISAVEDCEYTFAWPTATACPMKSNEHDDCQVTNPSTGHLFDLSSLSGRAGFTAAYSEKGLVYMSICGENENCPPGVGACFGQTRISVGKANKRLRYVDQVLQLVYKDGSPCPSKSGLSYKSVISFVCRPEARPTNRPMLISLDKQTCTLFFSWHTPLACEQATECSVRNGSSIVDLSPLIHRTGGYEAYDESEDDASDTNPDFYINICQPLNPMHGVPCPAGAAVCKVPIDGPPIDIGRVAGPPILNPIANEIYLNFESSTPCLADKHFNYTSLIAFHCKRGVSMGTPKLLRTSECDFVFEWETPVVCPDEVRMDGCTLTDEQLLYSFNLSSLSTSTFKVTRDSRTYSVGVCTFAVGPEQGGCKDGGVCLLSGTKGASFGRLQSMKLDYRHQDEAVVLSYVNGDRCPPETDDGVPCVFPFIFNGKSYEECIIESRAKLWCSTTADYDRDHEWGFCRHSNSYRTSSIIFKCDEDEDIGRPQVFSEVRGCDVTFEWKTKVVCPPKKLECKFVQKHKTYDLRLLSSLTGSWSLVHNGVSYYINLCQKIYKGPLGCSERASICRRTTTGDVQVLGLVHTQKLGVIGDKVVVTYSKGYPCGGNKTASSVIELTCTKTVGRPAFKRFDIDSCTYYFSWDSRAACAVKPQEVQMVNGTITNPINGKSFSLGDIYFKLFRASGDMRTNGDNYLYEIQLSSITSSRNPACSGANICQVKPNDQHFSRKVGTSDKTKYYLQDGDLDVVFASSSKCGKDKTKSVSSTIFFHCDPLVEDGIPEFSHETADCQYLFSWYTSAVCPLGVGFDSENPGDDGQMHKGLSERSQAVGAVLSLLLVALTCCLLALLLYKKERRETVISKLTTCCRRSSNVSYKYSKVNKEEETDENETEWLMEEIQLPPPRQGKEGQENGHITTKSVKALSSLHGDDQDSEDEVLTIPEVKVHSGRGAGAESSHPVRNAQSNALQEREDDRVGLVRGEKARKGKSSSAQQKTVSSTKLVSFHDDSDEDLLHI

ATB200: novel rhGAA carrying a higher M6P content that binds the CI-MPR with high affinity (previous studies)
Kd (CI-MPR): 2 to 4 nM

Lumizyme: recombinant human acid α-glucosidase (alglucosidase alfa, Genzyme), therapeutic lysosomal enzyme for Pompe disease
GAA activity in cell lysates (cellular uptake) [1]: only a slight increase (statistically insignificant) | levels of endosomal (Rab5) and lysosomal (LAMP1) markers ([2]; Western blot): remained the same as in the untreated GAA-deficient cells | processed, mature lysosomal form of rhGAA (76 kDa) in cells ([2]; Western blot with anti-human GAA antibodies): barely detectable | enlarged LAMP1-positive lysosomes [3]: Enlarged lysosomes were seen; also recorded: can be detected; also recorded: contain enlarged LAMP1-positive lysosomes
